Measured values taken from patent US20150094474A1, “AGRICULTURAL CHEMICALS” (Redx Pharma Ltd., priority 2012, published 2015).

Assays:
Assay type in all cases: in vivo
[1] = test system: black ants, Lasius niger; experiment: Insect repellent bioassay, black ants (treated tile arena); conditions: 20% concentration
Description: (§1) A laboratory bioassay was conducted to screen 5 compounds (Icaridin (38); and 4 icaridin analogues: 39, 40a, 42a and 41) for repellent activity against houseflies, Musca domestica, black ants, Lasius niger, German cockroaches, Blattella germanica, and bedbugs, Cimex lectularius. Compounds were diluted in a mixture of ethanol and water and assessed at a 20% concentration. A mixture of ethanol/water only negative control was also included for comparative purposes. These were applied onto an aluminium foil tile, which was placed into one half of an arena. The other half of the arena contained an untreated aluminium foil tile. The number of insects present in the treated and untreated area was assessed every 5 minutes for a total of 20 minutes.
Black ants, Lasius niger, were field collected from the Cardiff area. Mixed age worker ants were used in the experiments.
(§2) Temperature was maintained between 24.2 and 24.6° C. and relative humidity ranged between 27.5% and 43.5%, throughout the experimental period.
(§3) The tested compounds were diluted in ethanol and water to a concentration of 20% (w/w: compound 20%, ethanol 40%, water 40%). The concentrates were prepared at room temperature and stirred for approximately 15 minutes using a vortex mixer. A negative control (mixture of ethanol:water 50:50) was also included in the testing for comparative purposes. Treatments were applied directly on to a non porous surface (aluminium foil), using a Gilson pipette at a rate of 0.225 ml per 225 cm^2 surface tile. A small piece of acetate was used to evenly spread the treatments across the entire surface of the tile.
(§4) For the testing against ants, cockroaches and bedbugs: A clear plastic container was used measuring approximately 34 cm long×21 cm wide×20 cm high. This was divided into two halves. The treated aluminium foil was placed in one half and the other half contained untreated foil. Food (sugar cube for black ants and bran pellet for cockroaches) and water (damp cotton wool) were placed in each half where appropriate. Twenty ants/cockroaches and ten bedbugs were placed in the centre of the arena. The number of insects in each half was assessed at 5 minute intervals for a total of 20 minutes.
(§5) Three to six replicates were performed for each treatment, for each species.

[2] = test system: German cockroaches, Blattella germanica; experiment: Insect repellent bioassay, German cockroaches (treated tile arena); conditions: 20% concentration
Description: as §1
(§6) Houseflies, Musca domestica, and German cockroaches, Blattella germanica, were obtained from a laboratory culture maintained at i2LResearch. Mixed sex and age adult insects (flies were aged 3-6 days old) were used in the experiments.
as §2, §3, §4, §5

[3] = test system: houseflies, Musca domestica; experiment: Insect repellent bioassay, houseflies (treated tile arena); conditions: 20% concentration
Description: as §1, §6, §2, §3
For the testing against houseflies: A clear plastic container was used measuring approximately 34 cm long×21 cm wide×20 cm high, with a piece of netting and lid on top. This was divided into two halves using an additional tile with a small slit measuring approximately 2.5 cm×5 cm cut at a height of […] from the base, so that the insects could freely travel between halves. A treated and untreated tile was placed either side of the dividing panel. Twenty flies were placed in the half with the treated surface. Sugar and water was placed in both halves. The number of insects crossing from the treated area into the untreated area was assessed at 5 minute intervals for a total of 20 minutes.
as §5

[4] = test system: bedbugs, Cimex lectularius; experiment: Insect repellent bioassay, bedbugs (treated tile arena); conditions: 20% concentration, TIME 10 mins
Description: as §1
Bedbugs, Cimex lectularius, were obtained from a laboratory culture maintained at CimexStore (Chepstow, UK). Mixed age and sex adult bedbugs were used in the experiments (see deviation below).
as §2, §3, §4, §5

[5] = test system: peas; experiment: Herbicidal bioassay, peas (% necrosis)
How it was run: (§7)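 Scoring of % necrosis followed EPPO guideline PP1/135 at specified growth intervals, five replicates per species and treatment. Plants at the 2-4 true leaf stage received Potter-tower sprays of DMSO-diluted compounds across six levels from 0.0001% to 0.05%, with water and DMSO controls.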

[6] = test system: barley; experiment: Herbicidal bioassay, barley (% necrosis)
How it was run: as §7

CCC(C)OC(=O)N1CCCCC1C/C=N/O (stereo not shown) [Compound 40a]
insects on the treated tile ([1]; TIME 5 mins): C (greater than 25% were on the treated tile) | insects on the treated tile ([1]; TIME 10 mins): C (greater than 25% were on the treated tile) | insects on the treated tile ([1]; TIME 15 mins): C (greater than 25% were on the treated tile) | insects on the treated tile ([1]; TIME 20 mins): C (greater than 25% were on the treated tile) | insects on the treated tile ([2]; TIME 5 mins): C (greater than 25% were on the treated tile) | insects on the treated tile ([2]; TIME 10 mins): B (between 11% and 25% were on the treated tile) | insects on the treated tile ([2]; TIME 15 mins): B (between 11% and 25% were on the treated tile) | insects on the treated tile ([2]; TIME 20 mins): B (between 11% and 25% were on the treated tile) | insects moving towards the treated tile ([3]; TIME 5 mins): B (between 11% and 25% were on the treated tile) | insects moving towards the treated tile ([3]; TIME 10 mins): B (between 11% and 25% were on the treated tile) | insects moving towards the treated tile ([3]; TIME 15 mins): B (between 11% and 25% were on the treated tile) | insects moving towards the treated tile ([3]; TIME 20 mins): B (between 11% and 25% were on the treated tile) | insects on the treated tile [4]: A (10% or less of the insects were on the treated tile)

COC(=O)c1ccc(CNS(C)(=O)=O)cc1S(=O)(=O)NC(=O)Nc1nc(OC)cc(OC)n1 [Mesosulfuron (6), Mesosulfuron methyl ester, reference compound]
Sum of % necrosis in Pea ([5]; Dose 0.000001, Day 0): C (less than 50% necrosis) | Sum of % necrosis in Pea ([5]; Dose 0.000001, Day 1): C (less than 50% necrosis) | Sum of % necrosis in Pea ([5]; Dose 0.000001, Day 3): A (over 80% necrosis) | Sum of % necrosis in Pea ([5]; Dose 0.000001, Day 7): A (over 80% necrosis) | Sum of % necrosis in Pea ([5]; Dose 0.000001, Day 10): A (over 80% necrosis) | Sum of % necrosis in Pea ([5]; Dose 0.000001, Day 14): A (over 80% necrosis) | Sum of % necrosis in Pea ([5]; Dose 0.000005, Day 0): C (less than 50% necrosis) | Sum of % necrosis in Pea ([5]; Dose 0.000005, Day 1): C (less than 50% necrosis) | Sum of % necrosis in Pea ([5]; Dose 0.000005, Day 3): B (50%-80% necrosis) | Sum of % necrosis in Pea ([5]; Dose 0.000005, Day 7): A (over 80% necrosis) | Sum of % necrosis in Pea ([5]; Dose 0.000005, Day 10): A (over 80% necrosis) | Sum of % necrosis in Pea ([5]; Dose 0.000005, Day 14): A (over 80% necrosis) | Sum of % necrosis in Pea ([5]; Dose 0.00001, Day 0): C (less than 50% necrosis) | Sum of % necrosis in Pea ([5]; Dose 0.00001, Day 1): C (less than 50% necrosis) | Sum of % necrosis in Pea ([5]; Dose 0.00001, Day 3): A (over 80% necrosis) | Sum of % necrosis in Pea ([5]; Dose 0.00001, Day 7): A (over 80% necrosis) | Sum of % necrosis in Pea ([5]; Dose 0.00001, Day 10): A (over 80% necrosis) | Sum of % necrosis in Pea ([5]; Dose 0.00001, Day 14): A (over 80% necrosis) | Sum of % necrosis in Pea ([5]; Dose 0.00005, Day 0): C (less than 50% necrosis) | Sum of % necrosis in Pea ([5]; Dose 0.00005, Day 1): C (less than 50% necrosis) | Sum of % necrosis in Pea ([5]; Dose 0.00005, Day 3): B (50%-80% necrosis) | Sum of % necrosis in Pea ([5]; Dose 0.00005, Day 7): A (over 80% necrosis) | Sum of % necrosis in Pea ([5]; Dose 0.00005, Day 10): A (over 80% necrosis) | Sum of % necrosis in Pea ([5]; Dose 0.00005, Day 14): A (over 80% necrosis) | Sum of % necrosis in Pea ([5]; Dose 0.0001, Day 0): C (less than 50% necrosis) | Sum of % necrosis in Pea ([5]; Dose 0.0001, Day 1): C (less than 50% necrosis) | Sum of % necrosis in Pea ([5]; Dose 0.0001, Day 3): A (over 80% necrosis) | Sum of % necrosis in Pea ([5]; Dose 0.0001, Day 7): A (over 80% necrosis) | Sum of % necrosis in Pea ([5]; Dose 0.0001, Day 10): A (over 80% necrosis) | Sum of % necrosis in Pea ([5]; Dose 0.0001, Day 14): A (over 80% necrosis) | Sum of % necrosis in Pea ([5]; Dose 0.0005, Day 0): C (less than 50% necrosis) | Sum of % necrosis in Pea ([5]; Dose 0.0005, Day 1): C (less than 50% necrosis) | Sum of % necrosis in Pea ([5]; Dose 0.0005, Day 3): C (less than 50% necrosis) | Sum of % necrosis in Pea ([5]; Dose 0.0005, Day 7): A (over 80% necrosis) | Sum of % necrosis in Pea ([5]; Dose 0.0005, Day 10): A (over 80% necrosis) | Sum of % necrosis in Pea ([5]; Dose 0.0005, Day 14): A (over 80% necrosis) | Sum of % necrosis in barley ([6]; Dose 0.000001, Day 0): C (less than 50% necrosis) | Sum of % necrosis in barley ([6]; Dose 0.000001, Day 1): C (less than 50% necrosis) | Sum of % necrosis in barley ([6]; Dose 0.000001, Day 3): C (less than 50% necrosis) | Sum of % necrosis in barley ([6]; Dose 0.000001, Day 7): C (less than 50% necrosis) | Sum of % necrosis in barley ([6]; Dose 0.000001, Day 10): C (less than 50% necrosis) | Sum of % necrosis in barley ([6]; Dose 0.000001, Day 14): C (less than 50% necrosis) | Sum of % necrosis in barley ([6]; Dose 0.000005, Day 0): C (less than 50% necrosis) | Sum of % necrosis in barley ([6]; Dose 0.000005, Day 1): C (less than 50% necrosis) | Sum of % necrosis in barley ([6]; Dose 0.000005, Day 3): C (less than 50% necrosis) | Sum of % necrosis in barley ([6]; Dose 0.000005, Day 7): C (less than 50% necrosis) | Sum of % necrosis in barley ([6]; Dose 0.000005, Day 10): C (less than 50% necrosis) | Sum of % necrosis in barley ([6]; Dose 0.000005, Day 14): C (less than 50% necrosis) | Sum of % necrosis in barley ([6]; Dose 0.00001, Day 0): C (less than 50% necrosis) | Sum of % necrosis in barley ([6]; Dose 0.00001, Day 1): C (less than 50% necrosis) | Sum of % necrosis in barley ([6]; Dose 0.00001, Day 3): C (less than 50% necrosis) | Sum of % necrosis in barley ([6]; Dose 0.00001, Day 7): C (less than 50% necrosis) | Sum of % necrosis in barley ([6]; Dose 0.00001, Day 10): C (less than 50% necrosis) | Sum of % necrosis in barley ([6]; Dose 0.00001, Day 14): C (less than 50% necrosis) | Sum of % necrosis in barley ([6]; Dose 0.00005, Day 0): C (less than 50% necrosis) | Sum of % necrosis in barley ([6]; Dose 0.00005, Day 1): C (less than 50% necrosis) | Sum of % necrosis in barley ([6]; Dose 0.00005, Day 3): C (less than 50% necrosis) | Sum of % necrosis in barley ([6]; Dose 0.00005, Day 7): C (less than 50% necrosis) | Sum of % necrosis in barley ([6]; Dose 0.00005, Day 10): C (less than 50% necrosis) | Sum of % necrosis in barley ([6]; Dose 0.00005, Day 14): C (less than 50% necrosis) | Sum of % necrosis in barley ([6]; Dose 0.0001, Day 0): C (less than 50% necrosis) | Sum of % necrosis in barley ([6]; Dose 0.0001, Day 1): C (less than 50% necrosis) | Sum of % necrosis in barley ([6]; Dose 0.0001, Day 3): C (less than 50% necrosis) | Sum of % necrosis in barley ([6]; Dose 0.0001, Day 7): C (less than 50% necrosis) | Sum of % necrosis in barley ([6]; Dose 0.0001, Day 10): B (50%-80% necrosis) | Sum of % necrosis in barley ([6]; Dose 0.0001, Day 14): B (50%-80% necrosis) | Sum of % necrosis in barley ([6]; Dose 0.0005, Day 0): C (less than 50% necrosis) | Sum of % necrosis in barley ([6]; Dose 0.0005, Day 1): C (less than 50% necrosis) | Sum of % necrosis in barley ([6]; Dose 0.0005, Day 3): C (less than 50% necrosis) | Sum of % necrosis in barley ([6]; Dose 0.0005, Day 7): C (less than 50% necrosis) | Sum of % necrosis in barley ([6]; Dose 0.0005, Day 10): B (50%-80% necrosis) | Sum of % necrosis in barley ([6]; Dose 0.0005, Day 14): B (50%-80% necrosis)
